In the first assay the target is T1, aldose reductase (Rattus norvegicus, UniProt P07943).
T1 construct: their crystalline lenses were immediately removed and stored at -80° C; The lenses were homogenized; from tissue; host or cells: crystalline lens of six-week-old male SD rats (homogenate supernatant, dialysed)
The assay is described as follows: Aldose Reductase Inhibition Test (Experiment 1). It counts as biochemical, rat (male SD rat crystalline lens). The conditions noted are these: *Concentration of 10^-6 M; DL-glycerine aldehyde 10 mM, pH 6.2, 30° C., 5 min. As for the experimental part:
Six-week-old male SD rats were killed under ether anesthesia and their crystalline lenses were immediately removed and stored at -80° C. The lenses were homogenized in 3 volumes of 135 mM sodium potassium phosphate buffer (pH: 7.0) and centrifuged at a rate of 30,000 rpm for 30 min. The supernatant was dialyzed overnight against 0.05M sodium chloride, to produce an aldose reductase solution. All operations were conducted at 4° C. The enzyme solution was stored at -80° C.
(§1) The activity of aldose reductase was determined according to a slight modification of the method of J. H. Kinoshita et al [J. Biol. Chem., 240, 877 (1965)]. Namely, 0.1 ml of DL-glycerine aldehyde (final concentration: 10 mM) was added to 0.9 ml of 100 mM sodium potassium phosphate buffer (pH 6.2) which contained lithium sulfate (final concentration: 400 mM), reduced nicotinamide adenine dinucleotide phosphate (final concentration: 0.15 mM), the enzyme solution, and the compound to be tested (final concentration: 5×10^-5 M or 10^-6 M), and then the reaction was conducted at 30° C. for 5 min. […] The maximum reducing rate of the absorbance (U) during the reaction was determined. By substracting, from this value, the maximum reducing rate (Uo) at 340 nm of the reaction solution before the addition of the substrate (DL-glycerine aldehyde), the reaction rate (V) (V=U-Uo) was calculated as a true reaction rate in the presence of the compound to be tested.
(§2) The same procedure was repeated except for the absence of the compound to be tested. A true reaction rate (Vo) in case the enzyme was not inhibited was calculated (Vo =U'-Uo '). The inhibitory activity of aldose reductase was determined by the following formula. [formula]
As a reminder, the inhibition is how much of the control response was suppressed. A higher inhibition goes with a strong effect. For `CCCCCCCc1ccc(-c2nnnn2CC(=O)O)cc1` [Compound 3-24, 5-(4-n-Heptylphenyl)-1-tetrazoleacetic acid], the inhibition at 1 µM came out at 96%. In turn, `CCCCOc1ccc(-c2nnnn2CC(=O)O)cc1` [Compound 3-27, 5-(4-n-Butoxyphenyl)-1-tetrazoleacetic acid] came in with an inhibition at 1 µM of 96%. The same measure, in the same setting: with `O=C(O)Cn1nnnc1-c1ccc(Cl)cc1` [Compound 3-10, 5-(4-Chlorophenyl)-1-tetrazoleacetic acid] the figure was 85%; with `O=C(O)Cn1nnnc1-c1ccc(Cl)c([N+](=O)[O-])c1` [Compound 3-2, 5-(3-Nitro-4-chlorophenyl)-1-tetrazoleacetic acid], 84%; with `O=C(O)Cn1nnnc1-c1ccc(Oc2ccccc2)cc1` [Compound 3-25, 5-(4-Phenoxyphenyl)-1-tetrazoteacetic acid], 94%. The same measure, in the same setting: the same measure for `Cc1cccc(-c2nnnn2CC(=O)O)c1` [Compound 3-5, 5-(3-Methylphenyl)-1-tetrazoleacetic acid]: 96%; for `O=C(O)Cn1nnnc1-c1ccc(-c2ccccc2)cc1` [Compound 3-23, 5-(4-Biphenylyl)-1-tetrazoleacetic acid]: 95%; for `COc1ccc(-c2nnnn2CC(=O)O)cc1` [Compound 3-7, 5-(4-Methoxyphenyl)-1-tetrazoleacetic acid]: 95%.

The assay is the same for the next values; noted with them: final concentration 5×10^-5 M (values without asterisk); DL-glycerine aldehyde 10 mM, pH 6.2, 30° C., 5 min.
`COC(=O)Cn1nnnc1-c1ccc(Cl)c([N+](=O)[O-])c1` [Compound 2-6, Methyl 5-(3-nitro-4-chlorophenyl)-1-tetrazoleacetate] gave an inhibition at 50 µM of 42%. The same measure, in the same setting: with `CCCCOC(=O)C(=O)Nc1cc(-c2nnn[nH]2)cc(NC(=O)C(=O)OCCCC)c1Cl` [Compound 4-4, 5-(4-Chloro-3,5-di-n-butyloxalylaminophenyl)tetrazole] the figure was 92%; with `COC(=O)Cn1nnnc1-c1ccc(Cl)cc1` [Compound 2-1, Methyl 5-(4-chlorophenyl)-1-tetrazoleacetate], 31%.

As to `CC(C(=O)O)n1nnnc1-c1ccccc1` (stereo not drawn) [Compound 3-18, 2-(5-Phenyltetrazol-1-yl)propionic acid], 50 µM produced 91% inhibition. On the same count and under the same terms, with `COC(=O)Cn1nnnc1-c1cccc(C)c1` [Compound 1-6, Methyl 5-(3-methylphenyl)-1-tetrazoleacetate] the figure was 44%; with `COC(=O)Cn1nnnc1-c1ccc(OC)cc1` [Compound 1-8, Methyl 5-(4-methoxyphenyl)-1-tetrazoleacetate], 43%. `COC(=O)Cn1nnnc1-c1cccc([N+](=O)[O-])c1` [Compound 2-4, Methyl 5-(3-nitrophenyl)-1-tetrazoleacetate] displayed an inhibition at 50 µM of 30%.

Consider `CCOC(=O)C(=O)Nc1cc(-c2nnn[nH]2)cc(NC(=O)C(=O)OCC)c1Cl` [Compound 4-3, 5-(4-Chloro-3,5-diethyloxalylaminophenyl)tetrazole], for which 50 µM produced 95% inhibition.

`COC(=O)Cn1nnnc1-c1ccc(-c2nnnn2CC(=O)OC)cc1` [Compound 2-10, 1,4-Bis(1-methoxycarbonylmethyl-tetrazol-5-yl)benzene] came in with an inhibition at 50 µM of 36%. Same read-out and setting: with `O=C(O)Cn1nnnc1-c1ccc(-c2nnnn2CC(=O)O)cc1` [Compound 3-13, 1,4-Bis(1-carboxymethyl-tetrazol-5-yl)benzene] the figure was 94%; with `O=C(O)CCCn1nnnc1-c1ccccc1` [Compound 3-16, 4-(5-Phenyltetrazol-1-yl)buatyric acid], 79%.

As for `O=C(O)C(=O)Nc1cccc(-c2nnn[nH]2)c1` [Compound 5-1, 3-(1H-Tetrazol-5-yl)oxanilic acid], the inhibition at 50 µM amounted to 63%. Still for that read-out and setting: the same measure for `O=C(O)CCCCn1nnnc1-c1ccccc1` [Compound 3-17, 5-(5-Phenyltetrazol-1-yl)valeric acid]: 68%; for `CCCCOC(=O)C(=O)Nc1cccc(-c2nnnn2CC(=O)OCC)c1` [Compound 2-8, Butyl 3'-(1-ethoxycarbonylmethyl-tetrazol-5-yl)oxanilate]: 52%. Still for that read-out and setting: the same measure for `COC(=O)Cn1nnnc1-c1ccccc1` [Compound 1-1, methyl 5-phenyl-1-tetrazoleacetate]: 92%. The same measure, in the same setting: with `CCCCOC(=O)C(=O)Nc1cccc(-c2nnn[nH]2)c1` [Compound 4-1, 5-(3-n-Butyloxalylaminophenyl)tetrazole] the figure was 58%; with `CCCCOC(=O)Cn1nnnc1-c1ccccc1` [Compound 1-4, n-Butyl 5-phenyl-1-tetrazoleacetate], 63%.

As for `CCCCOC(=O)C(=O)Nc1ccccc1-c1nnn[nH]1` [Compound 4-2, 5-(2-n-Butyloxalylaminophenyl)tetrazole], testing at 50 µM gave an inhibition of 69%.

As to `COC(=O)Cn1nnnc1-c1ccc([N+](=O)[O-])cc1` [Compound 2-5, Methyl 5-(4-nitrophenyl)-1-tetrazoleacetate], at 50 µM the inhibition was 44%. For `O=C(O)CCn1nnnc1-c1ccccc1` [Compound 3-15, 3-(5-Phenyltetrazol-1-yl)propionic acid], the inhibition at 50 µM turned out to be 80%.

Another assay concerns the target T1, aldose reductase. In words: Aldose reductase inhibition, IC50 determination (Experiment 2). It counts as biochemical, rat (male SD rat crystalline lens). The conditions noted are these: calculated from inhibitions at three final concentrations; DL-glycerine aldehyde 10 mM, pH 6.2, 30° C. As for the experimental part:
Six-week-old male SD rats were killed under ether anesthesia and their crystalline lenses were immediately removed and stored at -80° C. […] The supernatant was dialyzed overnight against 0.05M sodium chloride, to produce an aldose reductase solution. All operations were conducted at 4° C. The enzyme solution was stored at -80° C.
as §1, with “Namely,” for “The activity of aldose reductase was determined according to a slight modification of the method of J. H. Kinoshita et al [J. Biol. Chem., 240, 877 (1965)]. Namely,”
as §2
In the same manner as Experiment 1, the inhibitions at final concentrations of 10^-6, 10^-7 and […] for the compound to be tested were calculated.
A word on the IC50: it is the concentration that gives 50% inhibition. As for `O=C(O)Cn1nnnc1-c1ccc(C(=O)O)cc1` [Compound 3-37, 5-(4-Carboxyphenyl)-1-tetrazoleacetic acid], the IC50 is 82 nM. The same measure, in the same setting: the same measure for `CCCCCCCc1ccc(-c2nnnn2CC(=O)O)cc1` [Compound 3-24, 5-(4-n-Heptylphenyl)-1-tetrazoleacetic acid]: 17 nM; for `CSc1ccc(-c2nnnn2CC(=O)O)cc1` [Compound 3-42, 5-(4-Methylthiophenyl)-1-tetrazoleacetic acid]: 37 nM; for `O=C(O)Cn1nnnc1-c1ccc(O)cc1` [Compound 3-31, 5-(4-Hydroxyphenyl)-1-tetrazoleacetic acid]: 43 nM.

Regarding `CCCCOc1ccc(-c2nnnn2CC(=O)O)cc1` [Compound 3-27, 5-(4-n-Butoxyphenyl)-1-tetrazoleacetic acid], the IC50 was 18 nM. In the case of `CCCCOc1ccc(-c2nnnn2CC(=O)O)cc1OCCCC` [Compound 3-35, 5-(3,4-Di-n-butoxyphenyl)-1-tetrazoleacetic acid], the half-inhibitory concentration (IC50) was 33 nM. On the same count and under the same terms, the same measure for `COc1ccc(-c2nnnn2CC(=O)O)cc1OC` [Compound 3-34, 5-(3,4-Dimethoxyphenyl)-1-tetrazoleacetic acid]: 63 nM; for `CCCN(CCC)C(=O)c1ccc(-c2nnnn2CC(=O)O)cc1` [Compound 3-39, 5-(4-Di-n-propylaminocarbonylphenyl)-1-tetrazoleacetic acid]: 73 nM. On the same count and under the same terms, with `CCCCCCCOc1ccc(-c2nnnn2CC(=O)O)cc1` [Compound 3-32, 5-(4-n-Heptoxyphenyl)-1-tetrazoleacetic acid] the figure was 29 nM; with `O=C(O)Cn1nnnc1-c1ccc(CBr)cc1` [Compound 3-41, 5-(4-Bromomethylphenyl)-1-tetrazoleacetic acid], 20 nM.

As to `CCCCNS(=O)(=O)c1ccc(-c2nnnn2CC(=O)O)cc1` [Compound 3-45, 5-(4-n-Butylaminosulfonylphenyl)-1-tetrazoleacetic acid], the IC50 was 78 nM. Still for that read-out and setting: with `O=C(O)Cn1nnnc1-c1ccc(C(=O)N2CCCCC2)cc1` [Compound 3-38, 5-(4-Piperidinocarbonylphenyl)-1-tetrazoleacetic acid] the figure was 54 nM; with `COc1cccc(-c2nnnn2CC(=O)O)c1` [Compound 3-33, 5-(3-Methoxyphenyl)-1-tetrazoteacetic acid], 28 nM.

Consider `O=C(O)Cn1nnnc1-c1ccc(Oc2ccccc2)cc1` [Compound 3-25, 5-(4-Phenoxyphenyl)-1-tetrazoteacetic acid], for which the IC50 was 28 nM. Take `O=C(O)Cn1nnnc1-c1ccc(-c2nnnn2CC(=O)O)cc1` [Compound 3-13, 1,4-Bis(1-carboxymethyl-tetrazol-5-yl)benzene]: the 50% inhibitory concentration (IC50) was 27 nM. Same read-out and setting: with `Nc1ccc(-c2nnnn2CC(=O)O)cc1` [Compound 3-40, 5-(4-Aminophenyl)-1-tetrazoleacetic acid] the figure was 41 nM; with `Cc1cccc(-c2nnnn2CC(=O)O)c1` [Compound 3-5, 5-(3-Methylphenyl)-1-tetrazoleacetic acid], 33 nM; with `O=C(O)Cn1nnnc1-c1ccc(-c2ccccc2)cc1` [Compound 3-23, 5-(4-Biphenylyl)-1-tetrazoleacetic acid], 22 nM. `CCCCc1ccc(-c2nnnn2CC(=O)O)cc1` [Compound 3-14, 5-(4-n-Butylphenyl)-1-tetrazoleacetic acid]: the IC50 was 17 nM.

Consider `COc1ccc(-c2nnnn2CC(=O)O)cc1` [Compound 3-7, 5-(4-Methoxyphenyl)-1-tetrazoleacetic acid], for which the IC50 is 48 nM.

(Values after patent USRE35281E, “Tetrazole derivatives and aldose reductase inhibition therewith” (Wakamoto Pharmaceutical Co., Ltd., priority 1989, dated 1996).)
